# Target: His-tagged KRAS G12D protein (Homo sapiens, UniProt P01116, G12D)
# Test: biochemical
# Chain of His-tagged KRAS G12D protein (P01116 1-188 isoform P01116-2 G12D): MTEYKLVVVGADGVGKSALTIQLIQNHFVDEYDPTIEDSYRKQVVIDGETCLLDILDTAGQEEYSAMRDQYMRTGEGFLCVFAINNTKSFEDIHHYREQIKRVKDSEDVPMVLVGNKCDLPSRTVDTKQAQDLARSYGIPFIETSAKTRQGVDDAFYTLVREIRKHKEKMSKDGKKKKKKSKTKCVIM
row,IC50 [nM],Compound
1,11,"CCc1c(F)ccc2cc(O)cc(-c3ncc4c(N5CC6CC(O)C(C6)C5)nc(OC[C@@]56CCCN5C[C@H](F)C6)nc4c3F)c12 (single isomer, unassigned) [Example 25]"
2,4,"CCc1c(F)ccc2cc(O)cc(-c3ncc4c(N5CC6CC(O)C(C6)C5)nc(OC[C@@]56CCCN5C[C@H](F)C6)nc4c3F)c12 (single isomer, unassigned) [Example 26]"
3,335,"CCC1CCCc2cc(O)cc(-c3ncc4c(N5CCC[C@@](C)(O)C5)nc(OC[C@@]56CCCN5C[C@H](F)C6)nc4c3F)c21 (single isomer, unassigned) [Example 174]"
4,33,"CCc1c(F)ccc2cc(O)cc(-c3ncc4c(N5CC6CC5CCC6O)nc(OCC56CCCN5C[C@H](F)C6)nc4c3F)c12 (stereo in doubt) [Example 155, 6-(7-(8-Ethyl-7-fluoro-3-hydroxy-naphthalen-1-yl)-8-fluoro-2-(((2R,7aS)-2-fluorotetrahydro-1H-pyrrolizin-7a(5H)-yl)methoxy)pyrido[4,3-d]pyrimidin-4-yl)-6-azabicyclo[3.2.1] octan-2-ol]"
5,19,"CCc1c(F)ccc2cc(O)cc(-c3ncc4c(N5CCC5C(N)=O)nc(OC[C@@]56CCCN5C[C@H](F)C6)nc4c3F)c12 (stereo partly drawn) [Example 5, 1-(7-(8-Ethyl-7-fluoro-3-hydroxynaphthalen-1-yl)-8-fluoro-2-(((2R,7aS)-2-fluorotetrahydro-1H-pyrrolizin-7a(5H)-yl)methoxy)pyrido[4,3-d]pyrimidin-4-yl)azetidine-2-carboxamide]"
6,39,"CCc1c(F)ccc2cc(O)cc(-c3ncc4c(N5C[C@@H]6COC[C@@H]65)nc(OC[C@@]56CCCN5C[C@H](F)C6)nc4c3F)c12 [Example 20, 4-(4-((1S,5R)-3-Oxa-6-azabicyclo[3.2.0]heptan-6-yl)-8-fluoro-2-(((2R,7aS)-2-fluorotetrahydro-1H-pyrrolizin-7a(5H)-yl)methoxy)pyrido[4,3-d]pyrimidin-7-yl)-5-ethyl-6-fluoronaphthalen-2-ol]"
7,9,CCc1c(F)ccc2cc(O)cc(-c3ncc4c(N5CC(O)CC(C)(C)C5)nc(OC[C@@]56CCCN5C[C@H](F)C6)nc4c3F)c12 (some centres unmarked) [Example 32]
8,54,"CCc1c(F)ccc2cc(O)cc(-c3ncc4c(N5C6CCC(O)C5CC6)nc(OC[C@@]56CCCN5C[C@H](F)C6)nc4c3F)c12 (stereo partly drawn) [Example 34, 8-(7-(8-Ethyl-7-fluoro-3-hydroxynaphthalen-1-yl)-8-fluoro-2-(((2R,7aS)-2-fluorotetrahydro-1H-pyrrolizin-7a(5H)-yl)methoxy)pyrido[4,3-d]pyrimidin-4-yl)-8-azabicyclo[3.2.1]octan-2-ol 2,2,2-trifluoroacetate]"
9,25,"CCc1c(F)ccc2cc(O)cc(-c3ncc4c(N5CC[C@H](C)[C@@H](O)C5)nc(OC[C@@]56CCCN5C[C@H](F)C6)nc4c3F)c12 [Example 35, (3R,4S)-1-(7-(8-Ethyl-7-fluoro-3-hydroxynaphthalen-1-yl)-8-fluoro-2-(((2R,7aS)-2-fluorotetrahydro-1H-pyrrolizin-7a(5H)-yl)methoxy)pyrido[4,3-d]pyrimidin-4-yl)-4-methyl-piperidin-3-ol]"
10,42,"CCc1c(F)ccc2cc(O)cc(-c3ncc4c(N5CC6CCOC6C5)nc(OC[C@@]56CCCN5C[C@H](F)C6)nc4c3F)c12 (stereo partly drawn) [Example 37, 5-Ethyl-6-fluoro-4-(8-fluoro-2-(((2R,7aS)-2-fluorotetrahydro-1H-pyrrolizin-7a(5H)-yl)methoxy)-4-(hexahydro-5H-furo[2,3-c]pyrrol-5-yl)pyrido[4,3-d]pyrimidin-7-yl)naphthalen-2-ol]"
11,4,"CCc1c(F)ccc2cc(O)cc(-c3ncc4c(N5CC(C(N)=O)CC(C)(C)C5)nc(OC[C@@]56CCCN5C[C@H](F)C6)nc4c3F)c12 (stereo partly drawn) [Example 43, 1-(7-(8-Ethyl-7-fluoro-3-hydroxynaphthalen-1-yl)-8-fluoro-2-(((2R,7aS)-2-fluorotetrahydro-1H-pyrrolizin-7a(5H)-yl)methoxy)pyrido[4,3-d]pyrimidin-4-yl)-5,5-dimethylpiperidine-3-carboxamide]"

# Reference: patent US20250034167A1, “HETEROCYCLIC COMPOUNDS AND METHODS OF USE” (AMGEN INC., priority 2021, published 2025)
